# ChEMBL document CHEMBL1201862, “PubChem BioAssay data set” (2004)
# Active and inactive are the calls of the source.
# Legend:
# [1] = biological target: T1, Adenosylmethionine-8-amino-7-oxononanoate aminotransferase (Mycobacterium tuberculosis, UniProt P9WQ81); test: Mycobacterium tuberculosis BioA enzyme inhibitor Measured in Biochemical System Using Plate Reader - 2163-02_Inhibitor_Dose_CherryPick_Activity.; type: functional, Mycobacterium tuberculosis UT205
# T1 sequence (P9WQ81 whole entry): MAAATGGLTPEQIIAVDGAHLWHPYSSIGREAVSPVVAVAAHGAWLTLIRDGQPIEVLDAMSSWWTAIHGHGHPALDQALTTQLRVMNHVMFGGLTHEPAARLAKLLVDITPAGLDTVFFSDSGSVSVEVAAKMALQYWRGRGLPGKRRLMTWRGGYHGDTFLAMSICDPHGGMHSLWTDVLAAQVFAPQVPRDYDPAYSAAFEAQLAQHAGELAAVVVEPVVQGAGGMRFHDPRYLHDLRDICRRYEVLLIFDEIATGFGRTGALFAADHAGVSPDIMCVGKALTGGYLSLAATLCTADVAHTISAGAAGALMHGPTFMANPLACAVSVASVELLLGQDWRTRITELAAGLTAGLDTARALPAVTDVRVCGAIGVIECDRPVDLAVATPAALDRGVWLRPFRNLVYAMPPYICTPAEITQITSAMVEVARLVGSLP
# Beta-galactosidase = Beta-galactosidase (Escherichia coli, UniProt Q8VNN2); test: PubChem AID 485352; type: functional
# [2] = biological target: T2, Type-1 angiotensin II receptor (Homo sapiens, UniProt P30556); test: antagonism of angiotensin II type 1 receptor – cell-based, uHTS hits, selectivity assay for APJ receptor antagonist project, dose response (AID 463214); type: functional;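 also: antagonist potency against angiotensin II stimulated AT1 response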
# T2 sequence (P30556 whole entry): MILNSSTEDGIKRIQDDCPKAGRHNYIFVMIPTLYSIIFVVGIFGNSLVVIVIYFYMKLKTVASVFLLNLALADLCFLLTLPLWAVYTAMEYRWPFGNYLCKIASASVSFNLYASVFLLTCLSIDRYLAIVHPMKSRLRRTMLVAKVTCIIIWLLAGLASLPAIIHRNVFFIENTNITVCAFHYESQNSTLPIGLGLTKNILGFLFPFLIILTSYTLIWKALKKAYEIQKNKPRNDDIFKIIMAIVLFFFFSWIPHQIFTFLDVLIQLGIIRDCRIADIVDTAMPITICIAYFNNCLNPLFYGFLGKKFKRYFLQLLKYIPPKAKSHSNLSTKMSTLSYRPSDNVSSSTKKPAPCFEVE
# cells = type: functional, cell-based
# [3] = biological target: T3, Nuclear receptor subfamily 0 group B member 1 (Homo sapiens, UniProt P51843); type: functional, cell-based;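 also: HEK293T cells transfected with SF-1 and DAX-1 plus StAR promoter luciferase reporter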
# T3 sequence (P51843 whole entry): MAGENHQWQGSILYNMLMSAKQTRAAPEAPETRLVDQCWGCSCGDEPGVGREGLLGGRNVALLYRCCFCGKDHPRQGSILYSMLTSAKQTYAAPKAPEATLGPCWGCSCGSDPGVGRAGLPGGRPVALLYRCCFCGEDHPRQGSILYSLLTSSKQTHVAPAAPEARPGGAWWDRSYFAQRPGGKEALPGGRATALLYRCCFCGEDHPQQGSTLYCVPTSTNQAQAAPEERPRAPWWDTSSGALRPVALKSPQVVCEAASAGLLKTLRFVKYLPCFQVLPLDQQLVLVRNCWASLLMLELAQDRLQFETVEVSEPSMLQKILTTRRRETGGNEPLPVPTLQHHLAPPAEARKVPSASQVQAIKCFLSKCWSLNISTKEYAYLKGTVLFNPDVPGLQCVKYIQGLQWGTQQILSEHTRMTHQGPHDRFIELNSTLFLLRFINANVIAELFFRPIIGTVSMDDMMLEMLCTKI
# [4] = biological target: T4, Small ubiquitin-related modifier 1 (Homo sapiens, UniProt P63165); test: SUMO1 protein-protein binding blockers, potency – biochemical, FRET, dose response (AID 624383); type: functional; settings: read-out: IC50_Mean
# [5] = biological target: T4, Small ubiquitin-related modifier 1; test: SUMO1 protein interaction blockers, potency – biochemical, fluorescence polarization, uHTS hits, dose response (AID 624382); type: functional; settings: read-out: IC50_Mean
# [6] = test system: Streptococcus sp. 'group A'; test: Streptococcus pyogenes SK(-)GAS viability under kanamycin – luminescence, BacTiterGlo, confirmation, counter-screen for streptokinase expression inhibitor project, dose response (AID 1900); type: functional, organism-based
# Streptococcus = test: GAS UMAA2166 growth inhibition – luminescence, BacTiterGlo, counter-screen for streptokinase expression inhibitor project, dose response (AID 1915); type: functional, organism-based;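 also: potency for reduction of bacterial viability or growth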
# Streptokinase A = biological target: T5, Streptokinase A (Streptococcus pyogenes serotype M1, UniProt P10520); test: viability-normalized secreted streptokinase activity reduction – plasminogen activation absorbance, OD405, dose response (AID 1914); type: functional, Streptococcus pyogenes M1 GAS;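 also: secreted streptokinase activity via plasminogen activation per viability signal from cell pellet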
# T5 sequence (P10520 whole entry): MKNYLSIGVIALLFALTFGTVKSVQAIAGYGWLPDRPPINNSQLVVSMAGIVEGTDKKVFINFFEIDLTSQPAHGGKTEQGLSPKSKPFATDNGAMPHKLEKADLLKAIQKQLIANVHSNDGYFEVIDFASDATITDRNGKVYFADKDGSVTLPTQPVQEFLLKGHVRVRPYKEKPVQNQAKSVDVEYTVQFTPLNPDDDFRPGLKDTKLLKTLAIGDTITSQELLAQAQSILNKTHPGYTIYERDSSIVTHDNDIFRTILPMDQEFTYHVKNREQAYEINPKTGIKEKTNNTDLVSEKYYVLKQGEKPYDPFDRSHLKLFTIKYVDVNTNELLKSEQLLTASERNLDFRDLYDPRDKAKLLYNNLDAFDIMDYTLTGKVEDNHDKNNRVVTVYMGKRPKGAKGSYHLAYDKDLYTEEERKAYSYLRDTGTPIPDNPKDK
# Mu-type opioid receptor = Mu-type opioid receptor (Homo sapiens, UniProt P35372); type: functional, cell-based;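 also: U2OS cells with beta-arrestin recruitment to OPRM1 by beta-gal complementation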
# [7] = biological target: 5-hydroxytryptamine receptor 2A (Mus musculus, UniProt P35363); type: functional, cell-based;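 also: CHO-K1 cells with tagged receptor and beta-arrestin; agonist potency measured as compound-induced activation of the receptor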
# [8] = biological target: T6, Long-chain-fatty-acid--AMP ligase FadD28 (Mycobacterium tuberculosis, UniProt P9WQ59); test: Fluorescence polarization aasay to screen for inhibitors that compete for the binding of FadD28 to a bisubstrate Measured in Biochemical System Using Plate Reader - 2147-01_Inhibitor_Dose_CherryPick_Activity.; type: functional, Mycobacterium tuberculosis H37Rv
# T6 sequence (P9WQ59 whole entry): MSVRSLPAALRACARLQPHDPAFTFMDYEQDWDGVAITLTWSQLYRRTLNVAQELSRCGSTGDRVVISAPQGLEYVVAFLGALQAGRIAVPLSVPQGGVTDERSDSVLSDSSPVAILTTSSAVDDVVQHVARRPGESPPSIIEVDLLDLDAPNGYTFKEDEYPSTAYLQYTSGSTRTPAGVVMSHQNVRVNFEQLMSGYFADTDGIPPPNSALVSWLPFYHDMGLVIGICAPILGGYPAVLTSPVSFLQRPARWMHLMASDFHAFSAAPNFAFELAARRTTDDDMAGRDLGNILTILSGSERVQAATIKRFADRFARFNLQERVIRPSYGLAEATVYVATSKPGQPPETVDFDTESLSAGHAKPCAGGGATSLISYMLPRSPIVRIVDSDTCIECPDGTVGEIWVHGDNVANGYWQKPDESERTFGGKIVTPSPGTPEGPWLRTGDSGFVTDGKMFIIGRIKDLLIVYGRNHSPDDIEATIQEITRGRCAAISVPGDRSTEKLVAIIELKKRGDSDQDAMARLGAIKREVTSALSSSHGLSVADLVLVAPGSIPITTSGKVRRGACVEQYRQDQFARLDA
# Beta-lactamase [9] = biological target: Beta-lactamase (Salmonella choleraesuis (strain SC-B67), UniProt Q5J463); test: Epi-absorbance-based counterscreen for selective VIM-2 inhibitors: dose response biochemical high throughput screening assay to identify inhibitors of TEM-1 serine-beta-lactamase.
# Beta-lactamase [10] = biological target: T7, Beta-lactamase (Pseudomonas aeruginosa, UniProt Q79MP6); test: […] counterscreen for selective VIM-2 inhibitors: dose response biochemical high throughput screening assay to identify inhibitors of IMP-1 metallo-beta-lactamase.
# Beta-lactamase [11] = biological target: T7, Beta-lactamase; test: inhibition of IMP-1 beta-lactamase activity – biochemical, epi-absorbance, selectivity assay for VIM-2 inhibitor project, dose response (AID 1920)
# T7 sequence (Q79MP6 whole entry): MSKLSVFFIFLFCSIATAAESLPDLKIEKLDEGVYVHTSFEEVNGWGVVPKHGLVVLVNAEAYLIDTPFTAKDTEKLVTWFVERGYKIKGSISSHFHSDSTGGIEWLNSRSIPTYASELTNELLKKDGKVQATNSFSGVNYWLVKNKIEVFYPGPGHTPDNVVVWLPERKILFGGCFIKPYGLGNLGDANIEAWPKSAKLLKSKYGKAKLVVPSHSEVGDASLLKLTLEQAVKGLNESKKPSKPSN
# T4 sequence (P63165 whole entry): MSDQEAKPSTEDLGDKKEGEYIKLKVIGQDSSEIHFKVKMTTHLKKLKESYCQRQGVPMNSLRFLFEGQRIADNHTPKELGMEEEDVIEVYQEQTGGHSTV
# Chain of Beta-galactosidase (Q8VNN2 whole entry): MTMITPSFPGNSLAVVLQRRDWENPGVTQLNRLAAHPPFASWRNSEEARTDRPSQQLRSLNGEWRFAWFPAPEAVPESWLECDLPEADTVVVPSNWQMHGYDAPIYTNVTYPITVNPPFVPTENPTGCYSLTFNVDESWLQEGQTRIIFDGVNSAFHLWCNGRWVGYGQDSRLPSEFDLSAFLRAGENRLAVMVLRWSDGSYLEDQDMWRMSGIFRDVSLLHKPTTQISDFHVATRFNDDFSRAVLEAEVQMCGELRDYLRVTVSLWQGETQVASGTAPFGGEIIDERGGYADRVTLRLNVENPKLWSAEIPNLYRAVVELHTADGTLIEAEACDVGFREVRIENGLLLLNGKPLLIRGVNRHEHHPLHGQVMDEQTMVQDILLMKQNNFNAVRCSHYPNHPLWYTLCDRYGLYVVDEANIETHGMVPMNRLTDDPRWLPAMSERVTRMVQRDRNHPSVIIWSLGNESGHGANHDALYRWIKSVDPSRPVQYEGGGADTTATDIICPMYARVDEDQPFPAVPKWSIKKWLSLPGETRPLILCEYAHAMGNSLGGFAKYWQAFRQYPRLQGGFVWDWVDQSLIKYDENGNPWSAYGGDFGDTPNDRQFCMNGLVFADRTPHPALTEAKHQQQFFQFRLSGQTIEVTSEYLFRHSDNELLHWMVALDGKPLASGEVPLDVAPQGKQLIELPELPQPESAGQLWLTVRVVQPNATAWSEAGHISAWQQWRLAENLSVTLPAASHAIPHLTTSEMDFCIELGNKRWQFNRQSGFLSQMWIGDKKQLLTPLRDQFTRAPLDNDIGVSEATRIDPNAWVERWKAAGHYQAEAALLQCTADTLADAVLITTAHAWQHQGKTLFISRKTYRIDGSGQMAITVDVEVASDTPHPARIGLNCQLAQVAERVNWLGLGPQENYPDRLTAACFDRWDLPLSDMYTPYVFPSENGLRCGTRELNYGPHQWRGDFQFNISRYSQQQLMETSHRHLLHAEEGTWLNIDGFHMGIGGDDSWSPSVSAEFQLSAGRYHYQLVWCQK
# Chain of Beta-lactamase (Salmonella choleraesuis (strain SC-B67), UniProt Q5J463) (Q5J463 whole entry): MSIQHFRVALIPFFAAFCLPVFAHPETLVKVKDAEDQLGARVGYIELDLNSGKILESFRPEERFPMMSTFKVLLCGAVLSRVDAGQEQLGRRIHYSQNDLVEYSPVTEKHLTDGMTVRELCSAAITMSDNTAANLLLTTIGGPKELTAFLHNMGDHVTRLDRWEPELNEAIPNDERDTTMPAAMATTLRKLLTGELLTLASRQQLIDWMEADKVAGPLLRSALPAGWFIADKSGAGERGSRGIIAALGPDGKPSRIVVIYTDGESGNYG
# Chain of Mu-type opioid receptor (P35372 whole entry): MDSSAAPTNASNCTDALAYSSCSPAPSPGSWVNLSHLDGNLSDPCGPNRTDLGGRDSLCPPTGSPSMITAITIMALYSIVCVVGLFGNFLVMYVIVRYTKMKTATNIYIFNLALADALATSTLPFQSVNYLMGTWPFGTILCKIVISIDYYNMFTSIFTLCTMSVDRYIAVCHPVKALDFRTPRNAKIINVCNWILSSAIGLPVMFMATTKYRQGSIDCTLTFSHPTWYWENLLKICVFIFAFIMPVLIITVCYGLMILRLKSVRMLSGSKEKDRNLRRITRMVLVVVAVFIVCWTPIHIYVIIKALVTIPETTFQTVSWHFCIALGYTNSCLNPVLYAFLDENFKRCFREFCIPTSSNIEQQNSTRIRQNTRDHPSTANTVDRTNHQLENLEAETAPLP
# Chain of 5-hydroxytryptamine receptor 2A (P35363 whole entry): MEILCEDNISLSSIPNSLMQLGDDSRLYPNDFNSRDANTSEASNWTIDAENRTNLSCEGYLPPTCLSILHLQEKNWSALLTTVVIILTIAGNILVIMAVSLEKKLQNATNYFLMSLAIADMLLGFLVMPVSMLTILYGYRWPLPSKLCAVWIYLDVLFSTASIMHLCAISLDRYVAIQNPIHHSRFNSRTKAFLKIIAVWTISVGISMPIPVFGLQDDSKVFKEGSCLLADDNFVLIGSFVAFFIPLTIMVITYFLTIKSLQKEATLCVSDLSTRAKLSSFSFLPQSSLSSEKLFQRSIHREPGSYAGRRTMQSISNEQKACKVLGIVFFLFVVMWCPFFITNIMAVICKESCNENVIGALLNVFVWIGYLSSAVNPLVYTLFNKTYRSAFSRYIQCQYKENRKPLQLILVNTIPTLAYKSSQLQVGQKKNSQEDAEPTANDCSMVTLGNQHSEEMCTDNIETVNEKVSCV
smiles,measurement,setting,value
COc1ccc2c(c1)c(C(=O)CN1CCC3(CC1)OCCO3)c(C)n2Cc1ccccc1,AC50,[1],3.41 µM (active)
Cn1nnc(NC(=S)NC(=O)c2cccc3ccccc23)n1,EC50,Beta-galactosidase,> 40 µM (inactive)
same,IC50,[2],> 40 µM (not active)
O=C(Nc1ccccc1Cl)NC1CCCCCCC1,IC50,cells,> 67.5 µM (inactive)
same,IC50,[3],> 67.5 µM (inactive)
COc1ccc(Cl)cc1Nc1nc(-c2sc(NC(=O)CC(C)C)nc2C)cs1,IC50,[4],14.8 µM (active)
same,IC50,[5],> 66.6 µM (inactive)
Cn1c(O)c(N=Nc2nc(-c3ccccc3)cs2)c2ccccc21,EC50,[6],3.21 µM (active)
same,EC50,Beta-galactosidase,> 40 µM (inactive)
same,IC50,[2],> 40 µM (not active)
same,EC50,Streptococcus,> 150 µM (not active)
same,EC50,Streptokinase A,7.09 µM (active)
Cc1ccc(CN2CCN(c3ncccn3)CC2)c(C)c1,EC50,Mu-type opioid receptor,92.4 µM (inactive)
same,EC50,[7],0.337 µM (active)
CCCC(=O)C1=C(c2ccccc2)C(C#N)(C#N)C(C#N)=C1N,AC50,[8],32 µM (inactive)
Cc1cc(OCC(=O)N2CCC[C@@H]2C(=O)O)c2c(C)c(C)c(=O)oc2c1,IC50,Beta-lactamase [9],> 59.6 µM (inactive)
same,IC50,Beta-lactamase [10],> 59.6 µM (inactive)
same,IC50,Beta-lactamase [11],> 59.6 µM (inactive)
Cc1c(OCC(=O)N2CCC[C@@H]2C(=O)O)ccc2c3c(c(=O)oc12)CCC3,IC50,Beta-lactamase [9],> 59.6 µM (inactive)
same,IC50,Beta-lactamase [10],> 59.6 µM (inactive)
same,IC50,Beta-lactamase [11],> 59.6 µM (inactive)
